Results on twelve compounds are retold here after US10118895B2, “ROR gamma (RORγ) modulators” (LEAD PHARMA HOLDING B.V., priority 2015, dated 2018).

Bounds are passed on as bounds.

The target in this assay is T1, RORγ (Homo sapiens, UniProt P51449).
T1 construct: expressed in transfected cells; host or cells: 293FT cells (Invitrogen), expression vector pFN26A (Promega)
T1 sequence (P51449 269-508 limits assumed): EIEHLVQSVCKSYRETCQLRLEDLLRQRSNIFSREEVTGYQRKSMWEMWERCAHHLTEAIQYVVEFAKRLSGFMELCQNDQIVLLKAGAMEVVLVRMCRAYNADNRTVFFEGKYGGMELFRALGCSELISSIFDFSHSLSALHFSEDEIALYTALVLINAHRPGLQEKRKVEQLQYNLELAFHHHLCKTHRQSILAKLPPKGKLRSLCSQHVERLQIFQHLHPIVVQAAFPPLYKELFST
The assay is described as follows: RORγ GAL4 reporter gene assay (luciferase readout, 293FT cells). Particulars: inhibition of RORγ (GAL4-RORγ-LBD) in transfected 293FT cells, luciferase signal, overnight incubation; read-out: mean pIC50 (converted). It is filed as cell-based. As for the experimental part:
RORγ GAL4 Reporter Gene Assay
Example inhibitors 1-38 were tested for their ability to inhibit RORγ activity in a RORγ GAL4 reporter gene assay. The assay procedure and results are described below.
RORγ GAL4 Reporter Gene Assay Description
A GAL4 one-hybrid reporter system employing luciferase readout was established to determine inhibition of RORγ in 293FT cells. The RORγ ligand-binding domain (LBD) was fused to the yeast GAL4 DNA binding domain (DBD) and placed under the control of the human cytomegalovirus (CMV) immediate early promoter, using expression vector pFN26A (Promega) and standard recombinant DNA cloning methods. To serve as a control in the assay, a similar vector was generated in which the GAL4-DBD was fused to Herpes simplex virus protein 16 (VP16), a constitutive transcriptional activator.
To monitor the inhibitory effect of compounds on RORγ, a transcriptional reporter construct was used. The pGL4.35 vector (Promega) contains nine copies of the GAL4 Upstream Activator Sequence (UAS). This sequence drives the transcription of the luciferase reporter gene luc2P in response to binding of a fusion protein containing the GAL4 DNA binding domain, as for example expressed by the GAL4-RORγ-LBD and GAL4-VP16 expression vectors described above. To allow a GAL4 fusion protein to drive the expression of the luciferase reporter, the pGL4.35 expression vector and the appropriate GAL4 fusion protein expression vector were bulk transfected in the 293FT cells using standard transfection techniques.
The day after transfection, cells were plated into 96 well plates, test compound was added and the plates were incubated overnight. Subsequently, the firefly luciferase activity was quantified using luciferase detection reagent and luminescence readout.
Detailed Assay Description
293FT cells (Invitrogen) were transfected with a GAL4 fusion protein expression vector (as described above) and the transcriptional reporter construct (pGL4.35, Promega). 60 μL of TransIT-293 transfection reagent (Mirus Bio) was added drop wise to 1500 μl Opti-MEM I Reduced Serum Medium (Invitrogen) and incubated at RT (RT) for 5 to 20 minutes. 1500 μL of this reagent mixture was added to 5 μg of GAL4 fusion protein expression vector and 5 μg of the transcriptional reporter construct, and incubated at RT for 20 minutes.
To harvest 293FT cells from a T75 flask, first the culture medium was taken off the cells. Subsequently, the cells were washed with Phosphate Buffered Saline (PBS) (Lonza), after which the PBS was removed. To dissociate the cells, 1 ml of TrypLE Express (Invitrogen) was added to the flask, followed by incubation at RT until the cells visually started to detach. Cells were collected in 5 mL of assay medium (DMEM culture medium (Lonza), 10% dialyzed FBS (Invitrogen) and Pen/Strep (Lonza)) to achieve a single cell suspension. 10×10^6 cells were spun down and re-suspended in 10 mL of assay medium. Subsequently, the cell suspension was added to the transfection mix tube, and then transferred as a whole to a T75 flask (Greiner), followed by overnight (16-24 hours) incubation at 37° C. and 5% CO2.
For compound screening, the cells were harvested (as described above) and counted. 13×10^6 cells were spun down, the supernatant was aspirated and the cells were re-suspended in 17.3 mL of assay medium obtaining a cell suspension of 0.75×10^6 cells/mL. 80 μL of cell suspension (60,000 cells) was plated per well into a white, flat bottom, tissue culture treated, 96 well screening plates (Greiner).
Test compounds were diluted, starting from a 10 mM dimethylsulfoxide (DMSO) stock solution, to serial dilutions in DMSO at 500× the final test concentration. Subsequently, these solutions were diluted to 5× the final test concentration in two 10-fold-dilution steps in assay medium. The final DMSO concentration of the 5× test compound solution was 1%. […]
(In general: A reporter such as luciferase makes a cellular process visible.)
In the case of `O=C(Cc1ccc(S(=O)(=O)CC2CC2(F)F)nc1)Nc1ccc(C(O)(C(F)(F)F)C(F)(F)F)cc1` (racemic) [(−)-22, (−)-2-[6-[(2,2-difluorocyclopropyl)methylsulfonyl]-3-pyridyl]-N-[4-[2,2,2-trifluoro-1-hydroxy-1-(trifluoromethyl)ethyl]phenyl]acetamide], the IC50 was at most 1000 nM.

Regarding `CCC(O)(c1ccc(NC(=O)Cc2ccc(S(=O)(=O)CC3CC3)nc2)cc1)C(F)(F)F` (racemic) [Example 20, 2-[6-(cyclopropylmethylsulfonyl)-3-pyridyl]-N-[4-[1-hydroxy-1-(trifluoromethyl)propyl]phenyl]acetamide], the IC50 was at most 1000 nM.

As for `O=C(Cc1ccc(S(=O)(=O)CC2CC2)nc1)Nc1ccc(C(O)(C(F)(F)F)C(F)(F)F)cc1` [Example 1, 2-[6-(cyclopropylmethylsulfonyl)-3-pyridyl]-N-[4-[2,2,2-trifluoro-1-hydroxy-1-(trifluoromethyl)ethyl]phenyl]acetamide], the IC50 was at most 100 nM.

With `COC(c1ccc(NC(=O)Cc2ccc(S(=O)(=O)CC3CC3)nc2)cc1)(C(F)(F)F)C(F)(F)F` [Example 2, 2-[6-(cyclopropylmethylsulfonyl)-3-pyridyl]-N-[4-[2,2,2-trifluoro-1-methoxy-1-(trifluoromethyl)ethyl]phenyl]acetamide], the IC50 is at most 100 nM.

Regarding `Cc1cc(NC(=O)Cc2ccc(S(=O)(=O)CC3CC3)nc2)ccc1C(O)(C(F)(F)F)C(F)(F)F` [Example 3, 2-[6-(cyclopropylmethylsulfonyl)-3-pyridyl]-N-[3-methyl-4-[2,2,2-trifluoro-1-hydroxy-1-(trifluoromethyl)ethyl]phenyl]acetamide], the IC50 is at most 100 nM.

On to `O=C(Cc1ccc(S(=O)(=O)CC2CC2)nc1)Nc1ccc(C(O)(C(F)(F)F)C(F)(F)F)c(F)c1` [Example 4, 2-[6-(cyclopropylmethylsulfonyl)-3-pyridyl]-N-[3-fluoro-4-[2,2,2-trifluoro-1-hydroxy-1-(trifluoromethyl)ethyl]phenyl]acetamide], for which the IC50 is at most 100 nM.

In the case of `O=C(Cc1ccc(S(=O)(=O)CC2CC2)nc1)Nc1ccc(C(O)(C(F)(F)F)C(F)(F)F)c(Cl)c1` [Example 5, N-[3-chloro-4-[2,2,2-trifluoro-1-hydroxy-1-(trifluoromethyl)ethyl]phenyl]-2-[6-(cyclopropylmethylsulfonyl)-3-pyridyl]acetamide], the IC50 was at most 100 nM.

On to `COc1cc(NC(=O)Cc2ccc(S(=O)(=O)CC3CC3)nc2)ccc1C(O)(C(F)(F)F)C(F)(F)F` [Example 6, 2-[6-(cyclopropylmethylsulfonyl)-3-pyridyl]-N-[3-methoxy-4-[2,2,2-trifluoro-1-hydroxy-1-(trifluoromethyl)ethyl]phenyl]acetamide], for which the IC50 is at most 1000 nM.

As for `Cc1cc(C(O)(C(F)(F)F)C(F)(F)F)ccc1NC(=O)Cc1ccc(S(=O)(=O)CC2CC2)nc1` [Example 7, 2-[6-(cyclopropylmethylsulfonyl)-3-pyridyl]-N-[2-methyl-4-[2,2,2-trifluoro-1-hydroxy-1-(trifluoromethyl)ethyl]phenyl]acetamide], the IC50 is at most 1000 nM.

`O=C(Cc1ccc(S(=O)(=O)CC2CC2)nc1)Nc1ccc(C(O)(C(F)(F)F)C(F)(F)F)cc1F` [Example 8, 2-[6-(cyclopropylmethylsulfonyl)-3-pyridyl]-N-[2-fluoro-4-[2,2,2-trifluoro-1-hydroxy-1-(trifluoromethyl)ethyl]phenyl]acetamide]: the IC50 is at most 100 nM.

As to `COc1cc(C(O)(C(F)(F)F)C(F)(F)F)ccc1NC(=O)Cc1ccc(S(=O)(=O)CC2CC2)nc1` [Example 9, 2-[6-(cyclopropylmethylsulfonyl)-3-pyridyl]-N-[2-methoxy-4-[2,2,2-trifluoro-1-hydroxy-1-(trifluoromethyl)ethyl]phenyl]acetamide], the IC50 was at most 1000 nM.

Turning to `O=C(Cc1ccc(S(=O)(=O)CC2CC2)nc1)Nc1ccc(C(O)(C(F)(F)F)C(F)(F)F)cn1` [Example 10, 2-[6-(cyclopropylmethylsulfonyl)-3-pyridyl]-N-[5-[2,2,2-trifluoro-1-hydroxy-1-(trifluoromethyl)ethyl]-2-pyridyl]acetamide], the IC50 was at most 1000 nM.
